Test results published in article PMC12439166, “Dietary flavonoids form supramolecular assemblies, alter biochemistry, and enhance cell resilience” (Frontiers in Nutrition, 2025).

System: human fibroblasts
Test: TMT proteomics of fibroblasts with and without UV exposure, differential expression and pathway analysis
Format: cell-based
Settings: result in words
Procedure: Human fibroblasts were obtained from Cell Applications Inc (Cat. # 106-05a) and were maintained in Dulbecco’s Modified Eagle medium (DMEM, Corning, Cat. #10-013-CV) with 10% fetal bovine serum (Gibco, Cat. #10082147) and 1% penicillin/streptomycin (Gibco, Cat. # 15070-063) in a humidified incubator with 5% CO2 at 37 °C. For ultraviolet radiation, fibroblasts were seeded in a 96-well plate at a density of 25,000 cells/well and maintained at 37 °C for 24 h. Cells were washed once with Hanks’ balanced salt solution (HBSS, Gibco, Cat. #14025-092), then treated for 1 h with different concentrations of compounds prepared in HBSS. Vitamin C (Sigma, Cat. # A5960) served as a positive control. Treated cells were exposed to ultraviolet light (UVP cross-linker, CL1000, 254 nm UV, 8 watts) at a total dose of 20 mJ/cm^2. Following irradiation, the HBSS was replaced with culture medium containing the same concentration of compounds as before irradiation, and cells were again maintained at 37 °C. Cell viability was measured at 24 h post-irradiation using CellTiter-Glo according to the manufacturer’s instructions (Promega, Cat.# G7571). Results were expressed as relative cell viability (%) with respect to control cells (cells without ultraviolet irradiation or compound treatment).
Frozen cell pellets were dissolved for 15 min in 6M Guanidinium Chloride at room temperature to lyse cells. Then, each solution was run on a 10 kDa filter (Pall, TX) and washed with 50 μL of TEAB buffer at 3000 rpm. FASP Digestion ([56]): A stock solution of Trypsin Platinum, Mass Spec Grade (Promega) at 100 μg/mL in 50 mM TEAB, and a specific volume of stock trypsin was added to each sample vial for each set of […] using a 1:50 ratio (Trypsin:Protein). Samples were incubated for 2 h at 50 °C and shaken/mixed at 350 rpm on an Eppendorf ThermoMixer C. TMT Labeling: Samples, now peptides, were labeled using 4 μL of TMTpro Mass Tag Labels (ThermoScientific). After labeling, samples were then shaken/mixed for 45 min to ensure labels were covalently bonded to peptides. The labeling reaction was quenched for 10 min using 1 μL of 5% hydroxyalamine. After quenching, samples were pooled into one 2 mL Eppendorf tube and then dried down using an Eppendorf Vacufuge Plus. Desalting Samples: Dried samples were resuspended in 300 μL of 0.1% TFA in ultrapure HPLC-grade water and vortexed to ensure full solubility. Samples were then desalted using Pierce^TM Peptide Desalting Spin Columns (ThermoScientific). Final eluates (desalted samples) contained 600 μL of 50% HPLC-grade Acetonitrile and 50% ultrapure HPLC-grade water. Desalted samples were then transferred to HPLC vials and were again dried down. […]

O=c1c(O[C@@H]2O[C@H](CO)[C@@H](O)[C@H](O)[C@H]2O)c(-c2ccc(O)c(O)c2)oc2cc(O)cc(O)c12 [isoquercitrin]
proteins/pathways up- and downregulated, exposed to UV radiation (UV-irradiated cells): upregulation of collagen and cell cycle/DNA repair proteins while downregulating proteins associated with autophagy, necroptosis, ferroptosis, lysosomal degradation, and other pathways | proteins/pathways up- and downregulated, without UV treatment (control conditions without UV): upregulated proteins associated with DNA repair pathways and downregulated inflammatory pathways
